Article PMC8222254, “Self-assembly of an anion receptor with metal-dependent kinase inhibition and potent in vitro anti-cancer properties” (Nature Communications, 2021)
Several values for one entry are separate records, joined by “and”; a condition that tells them apart may be missing. Identical values can stand only once.

What was measured:
Assay in all cases: Kinase inhibition screen, cell-free 33P ATP assay at 10 μM
Assay type in all cases: biochemical
[1] = biological target: T1, 140 purified human kinases (Homo sapiens, UniProt O00141)
T1 sequence (O00141 1-431): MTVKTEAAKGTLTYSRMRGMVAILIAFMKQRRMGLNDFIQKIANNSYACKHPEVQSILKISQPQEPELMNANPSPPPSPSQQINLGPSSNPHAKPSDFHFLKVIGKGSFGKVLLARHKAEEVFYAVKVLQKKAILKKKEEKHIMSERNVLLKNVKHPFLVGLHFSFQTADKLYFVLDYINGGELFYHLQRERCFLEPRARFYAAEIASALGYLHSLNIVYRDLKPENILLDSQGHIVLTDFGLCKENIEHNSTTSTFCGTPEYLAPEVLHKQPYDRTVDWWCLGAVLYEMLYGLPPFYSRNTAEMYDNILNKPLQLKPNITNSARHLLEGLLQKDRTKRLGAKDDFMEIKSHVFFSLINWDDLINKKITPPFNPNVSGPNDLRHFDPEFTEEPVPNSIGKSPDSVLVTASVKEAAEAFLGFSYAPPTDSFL
Summary of the method: (§1)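 Each complex tested in duplicate at 10 μM; cell-free radiometric assay using ^33P ATP on purified enzymes. Hits mapped by HGNC symbol onto the kinome tree.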

[2] = biological target: 140 purified human kinases (Homo sapiens, UniProt P53779)
Summary of the method: as §1

[3] = biological target: 140 purified human kinases (Homo sapiens, UniProt Q16584)
Summary of the method: as §1

[4] = biological target: 140 purified human kinases (Homo sapiens, UniProt Q6IQ55)
Summary of the method: as §1

[5] = biological target: T2, 140 purified human kinases (Homo sapiens, UniProt Q8IVH8)
T2 sequence (Q8IVH8 1-894): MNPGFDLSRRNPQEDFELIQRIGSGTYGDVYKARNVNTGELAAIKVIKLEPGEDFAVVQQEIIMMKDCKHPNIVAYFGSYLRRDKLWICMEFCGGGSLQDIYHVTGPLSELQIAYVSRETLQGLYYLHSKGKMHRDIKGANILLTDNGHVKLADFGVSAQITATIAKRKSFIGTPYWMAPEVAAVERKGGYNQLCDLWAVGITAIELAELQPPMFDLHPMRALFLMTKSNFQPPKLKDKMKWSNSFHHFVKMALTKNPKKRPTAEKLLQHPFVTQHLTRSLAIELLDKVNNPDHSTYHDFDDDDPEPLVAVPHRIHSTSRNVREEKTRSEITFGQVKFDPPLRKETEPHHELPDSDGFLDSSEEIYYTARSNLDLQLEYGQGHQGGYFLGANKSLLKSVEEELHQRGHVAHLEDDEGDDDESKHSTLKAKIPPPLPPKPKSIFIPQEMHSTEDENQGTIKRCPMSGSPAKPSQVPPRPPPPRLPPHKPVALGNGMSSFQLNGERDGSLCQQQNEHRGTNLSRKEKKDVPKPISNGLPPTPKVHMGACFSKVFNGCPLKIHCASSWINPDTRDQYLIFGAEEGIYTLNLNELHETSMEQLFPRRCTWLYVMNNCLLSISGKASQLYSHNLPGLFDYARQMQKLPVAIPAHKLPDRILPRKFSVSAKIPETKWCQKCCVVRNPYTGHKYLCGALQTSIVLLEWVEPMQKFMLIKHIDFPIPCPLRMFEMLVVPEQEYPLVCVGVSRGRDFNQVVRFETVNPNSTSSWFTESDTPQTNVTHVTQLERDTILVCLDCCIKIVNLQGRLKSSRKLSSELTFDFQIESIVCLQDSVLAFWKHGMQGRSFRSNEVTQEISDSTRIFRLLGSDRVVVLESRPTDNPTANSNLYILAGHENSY
Summary of the method: as §1

[6] = biological target: 140 purified human kinases (Homo sapiens, UniProt Q9Y6E0)
Summary of the method: as §1

[7] = biological target: T3, 140 purified human kinases (Tribolium castaneum, UniProt D6WMX4); conditions: PINK
T3 sequence (D6WMX4 6-570): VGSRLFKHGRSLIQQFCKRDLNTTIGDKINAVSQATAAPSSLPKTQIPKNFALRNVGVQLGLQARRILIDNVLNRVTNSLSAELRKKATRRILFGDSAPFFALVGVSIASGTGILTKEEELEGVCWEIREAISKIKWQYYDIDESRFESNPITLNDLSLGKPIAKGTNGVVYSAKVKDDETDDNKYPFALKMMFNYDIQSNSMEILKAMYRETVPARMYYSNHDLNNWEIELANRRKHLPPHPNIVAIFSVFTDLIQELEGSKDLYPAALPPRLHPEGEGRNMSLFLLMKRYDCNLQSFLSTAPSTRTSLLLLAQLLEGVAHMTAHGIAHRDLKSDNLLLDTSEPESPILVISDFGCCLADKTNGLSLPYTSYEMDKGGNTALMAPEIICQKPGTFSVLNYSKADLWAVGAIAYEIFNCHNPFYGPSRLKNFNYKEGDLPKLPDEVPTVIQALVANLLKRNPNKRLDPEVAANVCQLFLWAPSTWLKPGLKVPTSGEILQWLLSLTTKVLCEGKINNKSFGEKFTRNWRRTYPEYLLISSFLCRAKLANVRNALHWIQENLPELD
Summary of the method: as §1

140 purified human kinases (Homo sapiens, UniProt P53779), sequence (P53779 whole entry): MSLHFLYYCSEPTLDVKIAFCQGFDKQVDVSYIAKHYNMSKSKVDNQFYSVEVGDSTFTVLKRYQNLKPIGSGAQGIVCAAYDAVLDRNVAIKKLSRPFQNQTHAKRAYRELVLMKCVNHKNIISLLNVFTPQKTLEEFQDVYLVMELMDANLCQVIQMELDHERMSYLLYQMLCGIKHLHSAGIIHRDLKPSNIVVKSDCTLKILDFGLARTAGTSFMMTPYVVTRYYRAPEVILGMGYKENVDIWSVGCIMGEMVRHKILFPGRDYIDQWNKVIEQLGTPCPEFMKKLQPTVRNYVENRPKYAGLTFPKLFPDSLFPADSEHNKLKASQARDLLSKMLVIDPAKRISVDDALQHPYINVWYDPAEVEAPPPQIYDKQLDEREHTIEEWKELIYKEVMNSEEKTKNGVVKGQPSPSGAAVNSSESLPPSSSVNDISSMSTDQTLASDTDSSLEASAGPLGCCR
140 purified human kinases (Homo sapiens, UniProt Q6IQ55), sequence (Q6IQ55 whole entry): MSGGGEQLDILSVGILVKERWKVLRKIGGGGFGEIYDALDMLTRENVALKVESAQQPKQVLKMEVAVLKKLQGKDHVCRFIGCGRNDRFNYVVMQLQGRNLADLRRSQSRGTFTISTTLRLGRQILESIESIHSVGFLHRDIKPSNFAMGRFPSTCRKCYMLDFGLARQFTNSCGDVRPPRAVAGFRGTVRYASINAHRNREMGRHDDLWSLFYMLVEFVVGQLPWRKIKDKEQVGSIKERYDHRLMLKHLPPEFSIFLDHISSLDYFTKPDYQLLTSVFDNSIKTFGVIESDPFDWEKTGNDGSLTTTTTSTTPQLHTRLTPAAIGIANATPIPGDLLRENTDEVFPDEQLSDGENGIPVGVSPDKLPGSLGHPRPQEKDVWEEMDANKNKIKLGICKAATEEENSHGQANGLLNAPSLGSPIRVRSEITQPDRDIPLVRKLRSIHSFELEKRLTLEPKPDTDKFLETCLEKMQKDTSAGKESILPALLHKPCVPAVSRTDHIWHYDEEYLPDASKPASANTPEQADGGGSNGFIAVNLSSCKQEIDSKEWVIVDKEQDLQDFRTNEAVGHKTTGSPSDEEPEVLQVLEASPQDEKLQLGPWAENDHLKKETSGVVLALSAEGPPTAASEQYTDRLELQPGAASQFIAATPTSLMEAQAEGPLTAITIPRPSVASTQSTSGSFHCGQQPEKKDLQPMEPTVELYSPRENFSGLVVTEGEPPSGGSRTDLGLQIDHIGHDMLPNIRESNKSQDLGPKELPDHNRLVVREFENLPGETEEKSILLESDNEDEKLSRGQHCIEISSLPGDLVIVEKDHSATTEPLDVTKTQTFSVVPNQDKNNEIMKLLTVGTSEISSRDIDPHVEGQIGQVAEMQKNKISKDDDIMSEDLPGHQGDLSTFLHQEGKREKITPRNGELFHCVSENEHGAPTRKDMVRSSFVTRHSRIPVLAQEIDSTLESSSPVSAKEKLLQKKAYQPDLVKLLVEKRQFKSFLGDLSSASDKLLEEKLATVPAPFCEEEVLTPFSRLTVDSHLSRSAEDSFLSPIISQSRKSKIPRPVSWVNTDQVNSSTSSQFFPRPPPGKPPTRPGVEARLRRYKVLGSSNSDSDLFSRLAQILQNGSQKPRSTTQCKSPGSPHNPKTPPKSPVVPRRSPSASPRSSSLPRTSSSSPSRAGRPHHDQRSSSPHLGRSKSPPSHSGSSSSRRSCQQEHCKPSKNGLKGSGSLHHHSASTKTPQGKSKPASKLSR
140 purified human kinases (Homo sapiens, UniProt Q9Y6E0), sequence (Q9Y6E0 whole entry): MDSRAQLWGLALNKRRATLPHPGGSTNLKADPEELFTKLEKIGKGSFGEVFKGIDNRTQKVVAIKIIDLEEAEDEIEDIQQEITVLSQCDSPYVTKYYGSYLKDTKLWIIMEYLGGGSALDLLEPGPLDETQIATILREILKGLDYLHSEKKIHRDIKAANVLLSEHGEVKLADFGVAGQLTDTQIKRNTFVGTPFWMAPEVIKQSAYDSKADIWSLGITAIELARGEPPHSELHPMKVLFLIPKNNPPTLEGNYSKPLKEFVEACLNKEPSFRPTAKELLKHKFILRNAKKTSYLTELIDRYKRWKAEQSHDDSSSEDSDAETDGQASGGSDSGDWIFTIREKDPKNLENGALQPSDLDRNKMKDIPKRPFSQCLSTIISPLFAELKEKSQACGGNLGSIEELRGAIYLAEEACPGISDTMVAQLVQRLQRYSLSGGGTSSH
140 purified human kinases (Homo sapiens, UniProt Q16584), sequence (Q16584 whole entry): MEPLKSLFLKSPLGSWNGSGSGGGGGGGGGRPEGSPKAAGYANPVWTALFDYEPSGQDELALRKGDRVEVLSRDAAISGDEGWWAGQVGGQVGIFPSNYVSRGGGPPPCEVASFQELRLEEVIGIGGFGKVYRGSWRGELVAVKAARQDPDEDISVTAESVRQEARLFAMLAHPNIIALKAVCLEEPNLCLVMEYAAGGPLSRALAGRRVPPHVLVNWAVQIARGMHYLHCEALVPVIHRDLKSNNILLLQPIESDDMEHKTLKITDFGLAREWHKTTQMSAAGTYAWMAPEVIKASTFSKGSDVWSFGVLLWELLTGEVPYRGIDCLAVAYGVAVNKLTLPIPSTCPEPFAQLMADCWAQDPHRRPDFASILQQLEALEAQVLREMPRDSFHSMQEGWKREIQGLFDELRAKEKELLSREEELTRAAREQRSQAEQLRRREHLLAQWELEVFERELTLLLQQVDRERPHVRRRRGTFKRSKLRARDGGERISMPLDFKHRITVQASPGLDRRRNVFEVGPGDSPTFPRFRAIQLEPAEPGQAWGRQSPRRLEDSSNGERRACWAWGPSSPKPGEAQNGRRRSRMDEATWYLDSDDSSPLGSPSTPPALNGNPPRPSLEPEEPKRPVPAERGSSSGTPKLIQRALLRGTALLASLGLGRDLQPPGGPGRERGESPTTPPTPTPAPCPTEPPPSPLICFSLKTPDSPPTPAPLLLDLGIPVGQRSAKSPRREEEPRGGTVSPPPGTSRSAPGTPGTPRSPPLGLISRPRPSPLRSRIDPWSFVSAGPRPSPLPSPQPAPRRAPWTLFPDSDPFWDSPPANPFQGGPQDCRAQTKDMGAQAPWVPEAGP

[Cu+2].[Cu+2].[Cu+2].c1ccc(-c2csc(NCCN(CCNc3nc(-c4ccccn4)cs3)CCNc3nc(-c4ccccn4)cs3)n2)nc1.c1ccc(-c2csc(NCCN(CCNc3nc(-c4ccccn4)cs3)CCNc3nc(-c4ccccn4)cs3)n2)nc1 [[L2Cu3]6+]
% Inhibition Run 1 ([1]; SGK1): 85.6% | % Inhibition Run 2 ([1]; SGK1): 88.5% | % Inhibition, Mean ([1]; SGK1): 87% | mean % activity ([1]; SGK1): 13% | % activity ([1]; SGK1, Run 1): 14.4% | % activity ([1]; SGK1, Run 2): 11.5% | % Inhibition Run 1 ([2]; JNK3): 62% | % Inhibition Run 2 ([2]; JNK3): 41.6% | % Inhibition, Mean ([2]; JNK3): 52% | mean % activity ([2]; JNK3): 48% | % activity ([2]; JNK3, Run 1): 38% | % activity ([2]; JNK3, Run 2): 58.4% | % Inhibition Run 1 ([3]; MLK3): 94.9% | % Inhibition Run 2 ([3]; MLK3): 94.9% | % Inhibition, Mean ([3]; MLK3): 95% | mean % activity ([3]; MLK3): 5% | % activity ([3]; MLK3, Run 1): 5.1% | % activity ([3]; MLK3, Run 2): 5.1% | % Activity inhibition Mean ([3]; MLK3, 10 µM): 94.9% | % Activity inhibition Run 1 ([3]; MLK3, 10 µM): 94.9% | % Activity inhibition Run 2 ([3]; MLK3, 10 µM): 94.9% | % Activity remaining Run 1 ([3]; MLK3, 10 µM): 5.10% | % Activity remaining Run 2 ([3]; MLK3, 10 µM): 5.10% | % Inhibition Run 1 ([4]; TTBK2): 13% | % Inhibition Run 2 ([4]; TTBK2): -12.2% | % Inhibition, Mean ([4]; TTBK2): 0.4% | mean % activity ([4]; TTBK2): 100% | % activity ([4]; TTBK2, Run 1): 87% | % activity ([4]; TTBK2, Run 2): 112.2% | % Inhibition Run 1 ([5]; MAP4K3): 72.4% | % Inhibition Run 2 ([5]; MAP4K3): 85.5% | % Inhibition, Mean ([5]; MAP4K3): 79% | mean % activity ([5]; MAP4K3): 21% | % activity ([5]; MAP4K3, Run 1): 27.6% | % activity ([5]; MAP4K3, Run 2): 14.5% | % Inhibition Run 1 ([6]; MST3): 9.9% | % Inhibition Run 2 ([6]; MST3): -5.7% | % Inhibition, Mean ([6]; MST3): 2% | mean % activity ([6]; MST3): 98% | % activity ([6]; MST3, Run 1): 90.1% | % activity ([6]; MST3, Run 2): 105.7% | % Inhibition Run 1 [7]: 49.3% | % Inhibition Run 2 [7]: 39.6% | % Inhibition, Mean [7]: 44% | mean % activity [7]: 56% | % activity ([7]; Run 2): 60.4%

CC(=O)[O-].CC(=O)[O-].CC(=O)[O-].CC(=O)[O-].CC(=O)[O-].CC(=O)[O-].[Zn+2].[Zn+2].[Zn+2].c1ccc(-c2csc(NCCN(CCNc3nc(-c4ccccn4)cs3)CCNc3nc(-c4ccccn4)cs3)n2)nc1.c1ccc(-c2csc(NCCN(CCNc3nc(-c4ccccn4)cs3)CCNc3nc(-c4ccccn4)cs3)n2)nc1 [[L2Zn3]6+]
% Inhibition, Mean ([1]; SGK1): 37% | % Inhibition, Run 1 / Run 2 ([1]; SGK1): 43% and 32% | mean % activity ([1]; SGK1): 63% | % activity ([1]; SGK1, duplicate runs): 57% and 68% | % Inhibition, Mean ([2]; JNK3): 33% | % Inhibition, Run 1 / Run 2 ([2]; JNK3): 42% and 24% | mean % activity ([2]; JNK3): 67% | % activity ([2]; JNK3, duplicate runs): 58% and 76% | % Inhibition, Mean ([3]; MLK3): 5% | % Inhibition, Run 1 / Run 2 ([3]; MLK3): 4% and 6% | mean % activity ([3]; MLK3): 95% | % activity ([3]; MLK3, duplicate runs): 96% and 94% | % Activation, Mean value ([4]; TTBK2): 0.5% | % Inhibition, Mean ([4]; TTBK2): -0.5% | mean % activity ([4]; TTBK2): 101% | % activity ([4]; TTBK2, duplicate runs): 91% and 110% | % Inhibition, Mean ([5]; MAP4K3): 45% | % Inhibition, Run 1 / Run 2 ([5]; MAP4K3): 48% and 43% | mean % activity ([5]; MAP4K3): 55% | % activity ([5]; MAP4K3, duplicate runs): 52% and 58% | % Inhibition, Mean ([6]; MST3): 0.4% | % Inhibition, Run 1 / Run 2 ([6]; MST3): -3.6% and 4.4% | mean % activity ([6]; MST3): 100% | % activity ([6]; MST3, duplicate runs): 104% and 96% | % Inhibition, Mean [7]: 5.35% | % Inhibition, Run 1 / Run 2 [7]: 5% and 6% | mean % activity [7]: 95% | % activity ([7]; duplicate runs): 95% and 94%
